One experiment deals with Plasma TC. Nature of the experiment: in vivo screen designated APCC (high fat, high cholesterol diet, plasma cholesterol). Also noted: species or system male Sprague-Dawley rats. The note with it: Rattus norvegicus, dose 10 mg/kg; rats, PCC diet with 0.5% cholic acid overnight, vehicle CMC/Tween. The text has this:
In one in vivo screen designated APCC, male Sprague-Dawley rats (200 to 225 g) were randomly divided into treatment groups and dosed at 4 PM with either vehicle (CMC/Tween) or suspensions of compounds in vehicle. The normal chow diet was then replaced with a high fat, high cholesterol diet (designated PCC) containing 0.5% cholic acid. The rats consumed this diet ad libitum during the night and were sacrificed at 8 AM to obtain blood samples for cholesterol analysis using standard procedures. Statistical differences between mean cholesterol values for the same vehicle were determined using analysis of variance followed by Fisher's least significant test.

In experiment [1] the target is T1, acyl-CoA: cholesterol acyltransferase (ACAT) (Rattus norvegicus, UniProt Q7TQM4).
T1 construct: tissue preparation containing rat liver microsomes; from tissue; host or cells: rat liver microsomes
T1 sequence (Q7TQM4 1-524): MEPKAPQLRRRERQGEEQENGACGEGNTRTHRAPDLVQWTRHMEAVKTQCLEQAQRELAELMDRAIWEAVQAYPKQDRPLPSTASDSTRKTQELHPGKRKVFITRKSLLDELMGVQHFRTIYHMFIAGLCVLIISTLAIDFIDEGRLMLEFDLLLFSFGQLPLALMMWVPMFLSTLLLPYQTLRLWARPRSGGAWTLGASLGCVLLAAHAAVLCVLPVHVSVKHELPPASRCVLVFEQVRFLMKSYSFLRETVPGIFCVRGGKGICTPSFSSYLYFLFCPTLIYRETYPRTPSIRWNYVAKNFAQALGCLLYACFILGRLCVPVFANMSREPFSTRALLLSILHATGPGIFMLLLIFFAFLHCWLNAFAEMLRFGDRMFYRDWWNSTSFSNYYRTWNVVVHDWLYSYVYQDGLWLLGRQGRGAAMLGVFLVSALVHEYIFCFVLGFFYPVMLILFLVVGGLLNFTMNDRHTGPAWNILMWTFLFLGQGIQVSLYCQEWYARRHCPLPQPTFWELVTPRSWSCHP
Nature of the experiment: In vitro inhibition of acylation of cholesterol by oleic acid (LAI), rat liver microsomes. The experiment is classed as biochemical. Particulars: radiolabeled oleic acid. The method, then:
The ability of representative compounds of the present invention to inhibit ACAT was measured using an in vitro test more fully described in Field F J, Salone R G, Biochemica et Biophysica 1982; 712:557-570. The test assesses the ability of a test compound to inhibit the acylation of cholesterol by oleic acid by measuring the amount of radiolabeled cholesterol oleate formed from radiolabeled oleic acid in a tissue preparation containing rat liver microsomes.
In general terms: Liver microsomes are vesicles of endoplasmic reticulum, rich in cytochrome P450 enzymes.

From patent US6093744A, “N-acyl sulfamic acid esters useful as hypocholesterolemic agents” (Warner-Lambert Company, priority 1998, dated 2000) come the findings set out here.

SMILES strings stand for the structures. Where a name gives a salt, the structure may show the parent alone.

For the compound `CC(C)c1cc(C(C)C)c(CC(=O)NS(=O)(=O)Oc2c(C(C)C)cc(CN3CCN(C)CC3)cc2C(C)C)c(C(C)C)c1` [Example 23, [(2,4,6-Triisopropyl-phenyl)-acetyl]-sulfamic acid 2,6-diisopropyl-4-(4-methyl-piperazin-1-ylmethyl)-phenyl ester, dihydrochloride], the change in vivo at 10 mg/kg in the experiment on Plasma TC stood at 5%. Also, the midpoint of inhibition in experiment [1], the IC50, lay at 50 µM.

For `CC(C)c1cc(C(C)C)c(CC(=O)NS(=O)(=O)Oc2c(C(C)C)cc(C(N)=O)cc2C(C)C)c(C(C)C)c1` [Example 24, [(2,4,6-Triisopropyl-phenyl)-acetyl]-sulfamic acid 4-carbamoyl-2,6-diisopropyl-phenyl ester], the change in vivo at 10 mg/kg in the experiment with Plasma TC was -5%. Moreover, in experiment [1], the IC50 was determined as 43.8 µM.

Take `CC(C)c1cc(C(C)C)c(CC(=O)NS(=O)(=O)Oc2c(C(C)C)cc(CO)cc2C(C)C)c(C(C)C)c1` [Example 25, [(2,4,6-Triisopropyl-phenyl)-acetyl]-sulfamic acid 4-hydroxymethyl-2,6-diisopropyl-phenyl ester]: in the experiment on Plasma TC, the change in vivo at 10 mg/kg was -54%. For the same compound, in experiment [1], the IC50 is 38.5 µM.

In the case of `CC(=O)Nc1cc(C(C)C)c(OS(=O)(=O)NC(=O)Cc2c(C(C)C)cc(C(C)C)cc2C(C)C)c(C(C)C)c1` [Example 26], the change in vivo at 10 mg/kg in the experiment with Plasma TC is -44%. In experiment [1], this compound returned an IC50 of 30 µM.

`CC(C)c1cc(C(C)C)c(CC(=O)NS(=O)(=O)Oc2c(C(C)C)cc(N(CCO)CCO)cc2C(C)C)c(C(C)C)c1` [Example 28, [(2,4,6-Triisopropyl-phenyl)-acetyl]-sulfamic acid 4-[bis-(2-hydroxy-ethyl)-amino]-2,6-diisopropyl-phenyl ester]: the change in vivo at 10 mg/kg with Plasma TC is -48%. The IC50 in experiment [1] stood at 43.8 µM.

For the compound `CC(C)c1cc(C(C)C)c(CC(=O)NS(=O)(=O)Oc2c(C(C)C)cc(NC(=O)Nc3c(C(C)C)cccc3C(C)C)cc2C(C)C)c(C(C)C)c1` [Example 29], the change in vivo at 10 mg/kg with Plasma TC was -3%. In experiment [1], this compound gave an IC50 of 33 µM.

Turning to `CC(C)c1cc(C(C)C)c(CC(=O)NS(=O)(=O)Oc2c(C(C)C)cc(NC(=O)Nc3ccccc3)cc2C(C)C)c(C(C)C)c1` [Example 30], the change in vivo at 10 mg/kg in the experiment with Plasma TC was -30%. In experiment [1], this compound came in with an IC50 of 20.3 µM.

For `CC(C)c1cc(C(C)C)c(CC(=O)NS(=O)(=O)Oc2c(C(C)C)cc(NC(=S)Nc3ccccc3)cc2C(C)C)c(C(C)C)c1` [Example 31], in the experiment with Plasma TC, the change in vivo at 10 mg/kg is -21%. It took 37.4 µM to reach half-maximal inhibition in experiment [1] (IC50).

With `CC(C)c1cc(C(C)C)c(CC(=O)NS(=O)(=O)Oc2c(C(C)C)cc(NS(=O)(=O)c3cccs3)cc2C(C)C)c(C(C)C)c1` [Example 32, [(2,4,6-Triisopropyl-phenyl)-acetyl]-sulfamic acid 2,6-diisopropyl-4-(thiophene-2-sulfonyamino)-phenyl ester], the change in vivo at 10 mg/kg in the experiment with Plasma TC was -60%. The IC50 in experiment [1] worked out at 31.1 µM.

With `CC(C)c1cc(C(C)C)c(CC(=O)NS(=O)(=O)Oc2c(C(C)C)cc(NS(=O)(=O)c3cccc4c(N(C)C)cccc34)cc2C(C)C)c(C(C)C)c1` [Example 33, [(2,4,6-Triisopropyl-phenyl)-acetyl]-sulfamic acid 4-(5 dimethylamino-naphthalene-1-sulfonylamino)-2,6-diisopropyl-phenyl ester], the change in vivo at 10 mg/kg in the experiment on Plasma TC is -61%. Further, the IC50 in experiment [1] turned out to be 10.6 µM.

As for `CC(C)c1cc(C(C)C)c(CC(=O)NS(=O)(=O)Oc2c(C(C)C)cc(NS(C)(=O)=O)cc2C(C)C)c(C(C)C)c1` [Example 34, [(2,4,6-Triisopropyl-phenyl)-acetyl]-sulfamic acid 2,6-diisopropyl-4methanesulfonylamino-phenyl ester], the change in vivo at 10 mg/kg in the experiment with Plasma TC is -13%. Also, the IC50 in experiment [1] turned out to be 45 µM.

Turning to `CCOC(=O)CCCCCc1cc(C(C)C)c(OS(=O)(=O)NC(=O)Cc2c(C(C)C)cc(C(C)C)cc2C(C)C)c(C(C)C)c1` [Example 36, 6-(3,5-Diisopropyl-4-{[(2,4,6-triisopropyl-phenyl)-acetyl]sulfamoyloxy}-phenyl)-hexanoic acid ethyl ester], the change in vivo at 10 mg/kg in the experiment with Plasma TC is -17%. In experiment [1], this compound returned an IC50 of 19 µM.

Consider `CC(C)c1cc(C(C)C)c(CC(=O)NS(=O)(=O)Oc2c(C(C)C)cc(CCCCCC(=O)O)cc2C(C)C)c(C(C)C)c1` [Example 37], for which, in the experiment on Plasma TC, the change in vivo at 10 mg/kg was -47%. For the same compound, the IC50 in experiment [1] is > 50 µM.

The IC50 is the point on the concentration scale where inhibition reaches its midpoint. Read a high IC50 as lower potency.
